Test results: PubChem BioAssay (NCI)
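96-well plates; 48 h exposure; 5 concentrations. Endpoints by linear interpolation between flanking doses. Not reached: highest tested concentration assigned. GI50 marks 50% less growth. TGI marks complete inhibition of growth.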

What was measured:
Test in all cases: NCI anticancer screen, dose series, 48 h
[1] = system: HCC-2998 colon
[2] = system: K-562 leukemia
[3] = system: MALME-3M melanoma
[4] = system: MOLT-4 leukemia
[5] = system: NCI-H226 lung
[6] = system: NCI/ADR-RES ovarian
[7] = system: OVCAR-3 ovarian
[8] = system: RPMI-8226 leukemia
[9] = system: SF-268 CNS
[10] = system: SK-MEL-2 melanoma
[11] = system: SK-OV-3 ovarian
[12] = system: SW-620 colon
[13] = system: U251 CNS

SMILES	TGI [1]	TGI [2]	TGI [3]	TGI [4]	TGI [5]	TGI [6]	TGI [7]	TGI [8]	TGI [9]	TGI [10]	TGI [11]	TGI [12]	TGI [13]	GI50 [1]	GI50 [5]	GI50 [6]	GI50 [7]	GI50 [8]	GI50 [9]
COc1c(C(CC(C)C)OC(C)=O)ccc2c1C(=O)OCc1cc(C)cc(O)c1O2 (stereo not drawn)	25.4 µM	> 100 µM	29.8 µM	> 100 µM	30 µM	32.2 µM	22.3 µM	> 100 µM	27.9 µM	33.4 µM	31 µM	31.5 µM	28.1 µM	–	–	–	–	–	–
c1ccc2c(c1)n1c(N3CCOCC3)[n+]3ccccc3c1c1c3cccc[n+]3c(N3CCOCC3)n21	> 100 µM	> 100 µM	> 100 µM	> 100 µM	> 100 µM	> 100 µM	> 100 µM	> 100 µM	68.2 µM	> 100 µM	–	> 100 µM	> 100 µM	–	–	–	–	–	–
CCOC(=O)Cc1nc2nn(Cc3ccccc3)cc2c(=O)[nH]1	> 100 µM	> 100 µM	> 100 µM	> 100 µM	> 100 µM	> 100 µM	> 100 µM	> 100 µM	> 100 µM	–	> 100 µM	> 100 µM	> 100 µM	–	–	–	–	–	–
CC(C)[Si](OCC/C=C/C1CCC(=O)C1C(O)C1CCCCC1)(C(C)C)C(C)C (stereo not drawn)	23.2 µM	47 µM	29.1 µM	30 µM	30 µM	27.6 µM	30.9 µM	32.8 µM	24.7 µM	26.9 µM	30.3 µM	31.3 µM	30.9 µM	–	–	–	–	–	–
CN(C)Cc1cc(C(=O)/C=C/c2c(Cl)cccc2Cl)cc(CN(C)C)c1O	34.7 µM	13.4 µM	15.7 µM	30.3 µM	32.4 µM	41 µM	23.6 µM	39 µM	32.4 µM	–	–	13.9 µM	23.4 µM	–	–	–	–	–	–
CCOC(=O)c1c(-c2ccc(Cl)cc2)c(C#N)c(=S)n(C2OC(CO)C(O)C(O)C2O)c1-c1ccccc1 (stereo not drawn)	81.9 µM	70.9 µM	> 100 µM	46.7 µM	–	> 100 µM	37.9 µM	> 100 µM	55.9 µM	50.2 µM	96.2 µM	46.7 µM	32 µM	–	–	–	–	–	–
c1ccc2c(OCC3CO3)ccc(OCC3CO3)c2c1 (stereo not drawn)	24.1 µM	16.8 µM	20.5 µM	2.99 µM	27.7 µM	31.1 µM	6.75 µM	9.44 µM	12.1 µM	–	26.6 µM	4.03 µM	6.32 µM	–	–	–	–	–	–
COC(=O)CC1CN(C(=O)OCc2ccccc2)C(C)(C)O1 (stereo not drawn)	> 100 µM	> 100 µM	> 100 µM	> 100 µM	22.7 µM	> 100 µM	> 100 µM	> 100 µM	–	> 100 µM	> 100 µM	> 100 µM	> 100 µM	–	–	–	–	–	–
CC1N(O)C(c2ccccc2)C(c2ccccc2)=[N+]1[O-] (stereo not drawn)	> 100 µM	> 100 µM	> 100 µM	> 100 µM	> 100 µM	> 100 µM	> 100 µM	–	–	> 100 µM	> 100 µM	> 100 µM	> 100 µM	–	–	–	–	–	–
COC(=O)C(Cc1ccccc1)C(=O)NC(CNC(=O)OCc1ccccc1)C(=O)OCc1ccccc1 (stereo not drawn)	> 95.4 µM	45 µM	43.2 µM	43.7 µM	> 80.2 µM	> 100 µM	48.7 µM	50.2 µM	> 100 µM	97.4 µM	> 100 µM	> 100 µM	> 100 µM	–	–	–	–	–	–
COC(=O)C1=C(C(=O)OC)C(C(=O)c2ccccc2)N2N=C(c3ccc(Cl)cc3)C=CC12 (stereo not drawn)	> 100 µM	> 100 µM	83.7 µM	> 100 µM	66.1 µM	> 100 µM	> 100 µM	80.1 µM	> 100 µM	> 100 µM	> 100 µM	> 100 µM	> 100 µM	–	–	–	–	–	–
CC(C(O)c1ccccc1)N(C)/N=N/c1nc2c([nH]1)c(=O)n(C)c(=O)n2C (stereo not drawn)	> 100 µM	> 100 µM	> 100 µM	> 100 µM	> 100 µM	> 100 µM	> 100 µM	> 100 µM	> 100 µM	> 100 µM	> 100 µM	> 100 µM	> 100 µM	–	–	–	–	–	–
CC1(C)C[C@H]2C3=CC[C@@H]4[C@@]5(C)CC[C@H](O)C(C)(C)[C@@H]5CC[C@@]4(C)[C@]3(C)C[C@@H](O)[C@@]23C[C@@H]1OC3=O	> 100 µM	> 100 µM	> 100 µM	> 100 µM	–	> 100 µM	> 100 µM	> 100 µM	> 100 µM	> 100 µM	> 100 µM	> 100 µM	> 100 µM	–	–	–	–	–	–
O=C(O)c1ccccc1C(=O)OCC1CCCN2CCCCC12 (stereo not drawn)	> 100 µM	> 100 µM	> 100 µM	> 100 µM	> 100 µM	> 100 µM	> 100 µM	> 100 µM	> 100 µM	> 100 µM	> 100 µM	> 100 µM	> 100 µM	–	–	–	–	–	–
CC1=CC[C@@]2(C)[C@@H]([C@@H]1C)[C@H]1CC[C@@H]3[C@@]4(C)CC[C@H](O)C(C)(C)[C@@H]4CC[C@@]3(C)[C@]1(C)C[C@@H]2O	37.9 µM	> 100 µM	> 68.7 µM	> 70.4 µM	> 100 µM	61.7 µM	45.5 µM	> 100 µM	25.2 µM	> 59 µM	> 64.7 µM	98.6 µM	23.1 µM	–	–	–	–	–	–
CC1=C(C#N)C(=O)N(/N=C/c2ccc(Cl)cc2)C(=O)/C1=c1\o/c(=C2/C(=O)N(/N=C/c3ccc(Cl)cc3)C(=O)C(C#N)=C2C)c2nccnc12	> 100 µM	> 100 µM	> 100 µM	> 100 µM	> 100 µM	> 100 µM	> 100 µM	> 100 µM	> 100 µM	> 100 µM	> 100 µM	> 100 µM	> 100 µM	–	–	–	–	–	–
Nc1ccccc1C(=O)NNC(=O)c1ccccc1N	> 100 µM	> 100 µM	> 100 µM	> 100 µM	> 100 µM	> 100 µM	> 100 µM	> 100 µM	–	> 100 µM	> 100 µM	> 100 µM	> 100 µM	–	–	–	–	–	–

SMILES	TGI [1]	TGI [2]	TGI [3]	TGI [4]	TGI [5]	TGI [6]	TGI [7]	TGI [8]	TGI [9]	TGI [10]	TGI [11]	TGI [12]	TGI [13]	GI50 [1]	GI50 [5]	GI50 [6]	GI50 [7]	GI50 [8]	GI50 [9]
Clc1cccc(Cl)c1C1SCc2nc3cc4ccccc4cc3n21 (stereo not drawn)	> 100 µM	> 100 µM	> 100 µM	> 100 µM	> 100 µM	> 100 µM	> 100 µM	> 100 µM	> 100 µM	> 100 µM	> 100 µM	> 100 µM	> 100 µM	–	–	–	–	–	–
Cc1ccc2nc(CN3CCCCC3)cc(=O)n2c1	> 100 µM	> 100 µM	> 100 µM	> 100 µM	> 100 µM	> 100 µM	> 100 µM	> 100 µM	> 100 µM	> 100 µM	> 100 µM	> 100 µM	> 100 µM	–	–	–	–	–	–
COC(=O)c1cccc(C)c1C1CN=NC12Cc1c(ccc(C)c1C)C2=O (stereo not drawn)	> 100 µM	> 100 µM	78.1 µM	86.7 µM	> 100 µM	> 100 µM	> 100 µM	96.2 µM	> 100 µM	–	–	> 100 µM	> 100 µM	–	–	–	–	–	–
Cc1nc2c(n1CCCl)C(=O)c1ccccc1C2=O	67.5 µM	> 100 µM	19.2 µM	78 µM	50.1 µM	63.6 µM	> 100 µM	> 100 µM	> 100 µM	–	79.6 µM	88.9 µM	62.4 µM	–	–	–	–	–	–
C=C(CO)[C@H]1CC/C(C)=C/CC/C(C)=C/C/C=C(\C)[C@H](O)C1	32.2 µM	> 100 µM	–	44.2 µM	90.9 µM	90.3 µM	93.6 µM	51.6 µM	51.4 µM	51.5 µM	> 100 µM	40.1 µM	36 µM	–	–	–	–	–	–
Cc1nn(-c2ccccc2)c2nc3c(c(C)nn3-c3ccccc3)c(-c3ccccc3Br)c12	> 100 µM	> 100 µM	> 100 µM	> 100 µM	> 100 µM	> 100 µM	> 100 µM	> 100 µM	> 100 µM	–	> 100 µM	> 100 µM	> 100 µM	–	–	–	–	–	–
CC1=C(C(=O)OC23CC4CC(CC(C4)C2)C3)C(c2ccccc2OC(F)F)C(C(=O)OC23CC4CC(CC(C4)C2)C3)=C(C)N1 (stereo not drawn)	> 100 µM	–	> 100 µM	> 100 µM	> 100 µM	> 100 µM	> 100 µM	> 100 µM	> 100 µM	> 100 µM	> 100 µM	> 100 µM	> 100 µM	–	–	–	–	–	–
CC(=O)CCC(=O)CC(O)(C(F)(F)F)C(F)(F)F	33.6 µM	33.4 µM	32.9 µM	36.6 µM	24.7 µM	58.7 µM	–	49.8 µM	44.6 µM	–	–	42.8 µM	33.2 µM	–	–	–	–	–	–
Cc1cc(Cl)ccc1NC(=O)/C(CC(=O)CC(c1ccccc1)c1c(O)c2ccccc2oc1=O)=N\O (stereo not drawn)	> 100 µM	–	–	> 100 µM	> 100 µM	> 100 µM	> 100 µM	–	> 100 µM	> 100 µM	> 100 µM	> 100 µM	> 100 µM	–	–	–	–	–	–
CC(=O)/C(=C/N1C(=O)CC(=O)NC1=S)C(=O)Nc1ccccc1C	84.7 µM	–	–	> 100 µM	> 100 µM	> 100 µM	96.4 µM	–	> 100 µM	> 100 µM	> 100 µM	93.9 µM	> 100 µM	–	–	–	–	–	–
NC(=O)CC1(O)C=CC(=O)C=C1	> 100 µM	> 100 µM	> 100 µM	> 100 µM	> 100 µM	> 100 µM	> 100 µM	> 100 µM	–	> 100 µM	> 100 µM	> 100 µM	> 100 µM	–	–	–	–	–	–
CC(=O)NNc1nc(C)c(C(/C=C/c2ccccc2O)=N/NC(=O)c2ccncc2)s1	> 100 µM	–	> 100 µM	> 100 µM	> 100 µM	> 100 µM	> 100 µM	> 100 µM	> 100 µM	> 100 µM	> 100 µM	> 100 µM	> 100 µM	–	–	–	–	–	–
CCOC(=O)C1C(C(C)C)C2(C#N)C(=N)OC1(C)C2(C#N)C#N (stereo not drawn)	> 100 µM	> 100 µM	> 100 µM	–	> 100 µM	> 100 µM	–	> 100 µM	> 100 µM	> 100 µM	> 100 µM	> 100 µM	> 100 µM	–	–	–	–	–	–
CO[C@H]1C[C@@H]2CC[C@@H](C)[C@@](O)(O2)C(=O)C(=O)N2CCCC[C@H]2C(=O)O[C@H]([C@H](C)C[C@@H]2CC[C@@H](OC(=O)C(C)(CO)CO)[C@H](OC)C2)CC(=O)[C@H](C)/C=C(\C)[C@@H](O)[C@@H](OC)C(=O)[C@H](C)C[C@H](C)/C=C/C=C/C=C/1C	> 46.9 µM	> 100 µM	–	> 100 µM	22.1 µM	72.5 µM	> 100 µM	> 29.3 µM	> 85.7 µM	> 55.1 µM	> 100 µM	> 100 µM	> 47.4 µM	0.00154 µM	0.0187 µM	1.01 µM	1.78 µM	< 0.0247 µM	2.99 µM
O=S(=O)([N-]c1nc2ccccc2nc1-[n+]1ccccc1)c1ccccc1	> 100 µM	> 100 µM	> 100 µM	95.4 µM	> 100 µM	> 100 µM	> 100 µM	> 100 µM	> 100 µM	> 100 µM	> 100 µM	–	–	–	–	–	–	–	–
O=c1c2cc([N+](=O)[O-])cnc2sn1-c1ccc(Oc2ccccc2)cc1	> 100 µM	–	74.9 µM	> 100 µM	> 100 µM	> 100 µM	> 100 µM	> 100 µM	> 100 µM	> 100 µM	87.5 µM	> 100 µM	> 100 µM	–	–	–	–	–	–
CN=C1Nc2ccccc2C(=S)N2CSC[C@@H]12	> 100 µM	> 100 µM	> 100 µM	> 100 µM	–	> 100 µM	> 100 µM	> 100 µM	> 100 µM	> 100 µM	> 100 µM	> 100 µM	> 100 µM	–	–	–	–	–	–
